The results in this text go back to patent publication US6689750B1, “Bactericide compositions prepared and obtained from microccus varians” (priority 1995, dated 2004).

The subject of data set [1] is strain of Lactococcus lactis which produces lacticin 481. Kind of data set: Inhibition spectrum test on the lacticin 481 producer. The class given is cell-based. An excerpt: When the strain of Lactococcus lactis which produces lacticin 481 is inoculated in the presence of a […] extract, as previously described in the inhibition spectrum test, the growth of the said strain is seen to be inhibited. The strain of Lactococcus lactis which produces lacticin 481 is immune to its own bacteriocin, lacticin 481, but is not immune to the […] produced by either of the two Micrococcus varians strains according to the present invention.

Another data set relates to Gram-negative bacteria. Kind of data set: Inhibition spectrum, agar well test, summary. The class given is cell-based. Particulars: Table V. The text has this:
The inhibition spectrum of the supernatant is thus determined.

Data set [2] relates to Lactobacillus helveticus (N 2). Kind of data set: Inactivation by enzymes, agar well test. Particulars: two indicator strains. The class given is physicochemical.

Regarding lacticin 481, in data set [1], the “growth of the lacticin 481 producing strain” value is listed as “immune”. As for “variacin: bacteriocin from Micrococcus varians strains CNCM I-1586 and CNCM I-1587, amino acid sequence SEQ ID NO:1 (GSGVIPTISHECHMNSFQFVFTCCS)”, the “inhibitory effect on the growth of Gram-negative bacteria” value in the data set with Gram-negative bacteria is on record as “does not exert any inhibitory effect”. Further, in data set [2], the “influence of catalase on bactericidal activity” value is given as “not found to exert any influence”.
